Results taken from US20240174638A1, “HETEROARYL DERIVATIVES AS APELIN RECEPTOR AGONISTS” (RESEARCH TRIANGLE INSTITUTE, priority 2021, published 2024).

Assays:
[1] = tested on: BLEO-induced lung fibrosis in male C57BL/6 mice; experiment: Chronic (21-day) bleomycin-induced lung fibrosis model, prophylactic (Px) and therapeutic (Tx) arms; type: in vivo, mouse
in vitro [2] = conditions: rat, pH 7.4
Human plasma protein = conditions: 6 h, 1 μM
in vitro [3] = conditions: mouse, pH 7.4
in vitro [4] = conditions: human
Mouse plasma protein = conditions: 6 h, 1 μM
Rat plasma protein = conditions: 6 h, 1 μM
[5] = tested on: Salmonella typhimurium (TA98, TA100, TA1535 and TA1537)
[6] = relative to Vehicle-treated BLEO-instilled controls

Compound	recovery at 6 h, 1 μM (in vitro [2]) [%]	% Protein Bound Rep 1 (Human plasma protein) [%]	% Protein Bound Rep 2 (Human plasma protein) [%]	% Protein Bound Rep 3 (Human plasma protein) [%]	Buffer Concentration Rep 1 (Human plasma protein) [nM]	Buffer Concentration Rep 2 (Human plasma protein) [nM]	Buffer Concentration Rep 3 (Human plasma protein) [nM]	Plasma Concentration Rep 1 (Human plasma protein) [µM]	Plasma Concentration Rep 2 (Human plasma protein) [µM]	Plasma Concentration Rep 3 (Human plasma protein) [µM]	recovery at 6 h, 1 μM (in vitro [3]) [%]	recovery at 6 h, 1 μM (in vitro [4]) [%]	% Protein Bound Rep 1 (Mouse plasma protein) [%]	% Protein Bound Rep 2 (Mouse plasma protein) [%]	% Protein Bound Rep 3 (Mouse plasma protein) [%]	Buffer Concentration Rep 1 (Mouse plasma protein) [nM]	Buffer Concentration Rep 2 (Mouse plasma protein) [nM]	Buffer Concentration Rep 3 (Mouse plasma protein) [nM]	Mean % Protein Bound (Mouse plasma protein) [%]	Plasma Concentration Rep 2 (Mouse plasma protein) [µM]	other results
Cc1ccc(=O)n(-c2ccccc2)c1 [PIRF, Pirfenidone, reference compound]	–	–	–	–	–	–	–	–	–	–	–	–	–	–	–	–	–	–	–	–	21-day survival rate ([1]; BLEO-instilled mice, Px PIRF 200 mg/kg/day p.o. BID): 94%; ΔBW ([1]; D0-D21, relative to Vehicle-treated BLEO-instilled controls): Neither EXAMPLE 22 nor PIRF affected; composite Collagen Volume Fraction (CVF) ([1]; Px PIRF 200 mg/kg/day, Vehicle 2.63±0.24%): 1.87±0.19%; composite Tissue Collagen Fraction (TCF) ([1]; Px PIRF 200 mg/kg/day, Vehicle 5.58±0.34%): 4.43±0.34%; LW indexed to tibia length (LW:TL) [1, 6]: Neither EXAMPLE 22 nor PIRF affected; endpoint lung OH-P content [1, 6]: Neither EXAMPLE 22 nor PIRF affected; endpoint lung weight (LW) [1, 6]: Neither EXAMPLE 22 nor PIRF affected; final BW [1, 6]: Neither EXAMPLE 22 nor PIRF affected; serial BW [1, 6]: Neither EXAMPLE 22 nor PIRF affected
CCCC(=O)Nc1ccc(OCC(O)CNC(C)C)c(C(C)=O)c1 (stereo not drawn) [Acebutolol]	105	−12.84	−22.81	−2.59	544.3	539.8	494.8	0.4823	0.4396	0.4823	60.3	99.4	18.36	23.23	20.05	274.4	258.1	268.1	20.50	0.3362	Plasma Concentration Rep 1 (Mouse plasma protein): 0.336 µM; Plasma Concentration Rep 3 (Mouse plasma protein): 0.3353 µM; % Protein Bound Rep 1 (Rat plasma protein): −11.35%; % Protein Bound Rep 2 (Rat plasma protein): −26.18%; % Protein Bound Rep 3 (Rat plasma protein): −33.75%; Buffer Concentration Rep 1 (Rat plasma protein): 552.8 nM; Buffer Concentration Rep 2 (Rat plasma protein): 571.3 nM; Buffer Concentration Rep 3 (Rat plasma protein): 639.1 nM; Plasma Concentration Rep 1 (Rat plasma protein): 0.4556 µM; Plasma Concentration Rep 2 (Rat plasma protein): 0.4528 µM; Plasma Concentration Rep 3 (Rat plasma protein): 0.4778 µM
COc1ccc2nc3cc(Cl)ccc3c(NCCCNCCCl)c2c1 [ICR-191]	–	–	–	–	–	–	–	–	–	–	–	–	–	–	–	–	–	–	–	–	Cytotoxicity Code [5]: N; Mean Revertant Colony Counts ([5]; Salmonella typhimurium): 66.00; Ratio ([5]; Salmonella typhimurium): 28.33
CC(=O)CC(c1ccccc1)c1c(O)c2ccccc2oc1=O (stereo not drawn) [Warfarin]	81.4	97.59	98.26	98.01	21.6	17.3	18.4	0.8975	0.9932	0.9262	98.2	95.4	89.13	90.27	91.02	91.8	89.5	82.3	90.10	0.9198	Mean % Protein Bound (Human plasma protein): 97.96%; Plasma Concentration Rep 3 (Mouse plasma protein): 0.917 µM; % Protein Bound Rep 1 (Rat plasma protein): 99.46%; % Protein Bound Rep 2 (Rat plasma protein): 99.25%; % Protein Bound Rep 3 (Rat plasma protein): 97.82%; Buffer Concentration Rep 1 (Rat plasma protein): 4.4 nM; Buffer Concentration Rep 2 (Rat plasma protein): 5.9 nM; Buffer Concentration Rep 3 (Rat plasma protein): 17.7 nM; Mean % Protein Bound (Rat plasma protein): 98.80%
